Data from patent US8557286B1, “Method for producing a water-insoluble amorphous or partially amorphous controlled release matrix” (EuroCeltique, S.A., priority 2000, dated 2013).

Test: Release of the active agent in a paddle agitator model according to USP
Format: physicochemical
Conditions: total dose of 25 mg; pure caffeine, not retarded, filled in a capsule; FIG. 3
From the text: In this context it is once again pointed out that the degree of destructurization into the glass state is decisive for the kinetics of the release of the active agents. […] For comparative purposes, the release of pure caffeine, not retarded and filled in a capsule has been drawn in.

Cn1c(=O)c2c(ncn2C)n(C)c1=O [caffeine]
Time of release for the total dose: about 15 minutes
